Read-outs that look alike come from different tables or passages of the source.
Tested on: human visceral preadipocytes
Assay: cells
Settings: for IC50: Homo sapiens
Protocol: Human visceral preadipocytes were seeded in 96-well white clear bottom plates at 10,000 cells per well in 100 μl pre-adipocyte medium and incubated overnight at 37° C. 5% CO2. On the following day, adipogenic differentiation was induced by addition of 100 μl/well differentiation medium and incubation continued for 5 days. Adipogenic differentiation was verified by microscopic evaluation, addition of adipored reagents and fluorescent measurement at Ex485 nm/Em572 nm. […] Staurosporine (1 μM) and 0.2% DMSO were used as controls. Plates were incubated at 37° C. 5% CO2 for 2, 6 and 24 hours. Following incubation, cytotoxicity was measured using Cell Titer Glo 2.0 (Promega).
Test Item RZL-12 (1-300 μM) was prepared on the day of the testing as 150 mM stock solutions in DMSO. The 150 mM represents a 500×stock of the highest desired tested concentration. The 150 mM stock solution was first serially diluted in DMSO to acquire 500×stock solutions for each of the RZL-012 concentrations. The 500×stock solutions were then diluted 1:25 in medium to acquire 20×intermediate stock solutions. Finally, the 20×intermediate stock solutions were further diluted 1:20 in the assay (on the plate) that included seeded cells.
The 600 μM represents a 20× stock of the highest desired tested concentration. […] Finally, the 20×intermediate stock solutions were further diluted 1:20 in the assay plate that included seeded cells.
Human visceral pre-adipocytes (HPrAD-vis): HPrAD-vis cells (Lonza cat #PT-5005) were thawed at 37° C. and transferred into 50 ml tubes containing pre-adipocytes PGM-2 growth medium (PBM-2, 10% FBS, 1-glutamine, GA-1000). Cells were centrifuged at 300 g for 10 minutes, the supernatant was removed (Leaving about 1 ml of wash medium for not disrupting the cells) and 2 ml fresh PGM-2 medium was added. After resuspension, cells were counted and seeded in T-75 and T25 flasks at a density of 9,000 cells/cm^2 ([…], 225,000 cells/T25 flask). Medium was changed every 2-3 days until reached confluence of 70%.
Cells were sub-cultured only once, as soon as they reached 70% confluence. For this purpose, the culture medium of each flask was removed and cells were washed once with 5 ml PBS. The flask was shaken to ensure that the entire surface was covered and the PBS was removed. Then, 3 ml/T75 flask or 1 ml/T25 flask of fresh dedicated Trypsin/EDTA solution (from Lonza) was added and the flasks were incubated for 3-4 minutes at RT until ˜90% cells were detached. The Trypsin/EDTA solution was then neutralized by addition of 6 ml/T75 flask or 3 ml/T25 flask of full PGM-2 growth medium. Cells were collected in 50 ml tubes and centrifuged 10 minutes at 300 g. The supernatant was removed and the cells were resuspended in 3 ml fresh medium. Cells were then counted using a haemacytometer slide after being diluted 1:2 in trypan blue (SIGMA). For sub-culturing, cells were seeded in new T75 flasks at a density of 9,000 cells/cm^2 containing 15 ml fresh growth medium. Alternatively, the cells were seeded in 96-well culture plates at a density of 10,000 cells/well for the cell treatments.
HPrAD-vis cells: HPrAD-vis passaged once were seeded in 96-well plates as described above (10000cells/well in 100 μl medium) and allowed to settle overnight at 37° C., 5% CO2. Following day, adipogenic differentiation was induced by addition of 100 μl/well differentiation medium and incubated for 5 days. Adipogenic differentiation was verified by microscopic evaluation, addition of adipored reagents and fluorescent measurement at Ex485 nm/Em572 nm. In the morning of day 6, test and reference items were prepared as described above. Cells' medium was replaced with 90 μl fresh differentiation medium. […] Staurosporine (1 μM) and 0.2% DMSO were used as controls. Plates were incubated at 37° C. 5% CO2 for 2, 6 and 24 hours. Following incubation, cell viability was determined using the CellTiter-Gg® viability reagent (Promega) with reading of plates for luminescence. […]

## C[N+](C)(C)CCCCCn1c2ccc(Br)cc2c2cc(Br)ccc21.[Cl-] [RZL-012, 5-(3,6-dibromo-9H-carbazol-9-yl)-N,N,N-trimethylpentan-1-aminium chloride]
2 h, read-out: IC50 of RZL-12 in the presence of Collagenase, Collagenase 0, 2 h incubation
  IC50: 31.4 µM
2 h, read-out: IC50 of RZL-12 in the presence of Collagenase, Collagenase 0.1 μM, 2 h incubation
  IC50: 32.4 µM
2 h, read-out: IC50 of RZL-12 in the presence of Collagenase, Collagenase 0.3 μM, 2 h incubation
  IC50: 35.7 µM
2 h, read-out: IC50 of RZL-12 in the presence of Collagenase, Collagenase 1 μM, 2 h incubation
  IC50: 32.6 µM
2 h, read-out: IC50 of RZL-12 in the presence of Collagenase, Collagenase 3 μM, 2 h incubation
  IC50: ~31.2 µM
2 h, read-out: IC50 of RZL-12 in the presence of Collagenase, Collagenase 10 μM, 2 h incubation
  IC50: 71.3 µM
2 h, read-out: IC50 of RZL-12 in the presence of Collagenase, Collagenase 30 μM, 2 h incubation
  IC50: ~93.2 µM
6 h, read-out: IC50 of RZL-12 in the presence of Collagenase, Collagenase 0, 6 h incubation
  IC50: 34.6 µM
6 h, read-out: IC50 of RZL-12 in the presence of Collagenase, Collagenase 0.1 μM, 6 h incubation
  IC50: 44.3 µM
6 h, read-out: IC50 of RZL-12 in the presence of Collagenase, Collagenase 0.3 μM, 6 h incubation
  IC50: 45.1 µM
6 h, read-out: IC50 of RZL-12 in the presence of Collagenase, Collagenase 1 μM, 6 h incubation
  IC50: 44.2 µM
6 h, read-out: IC50 of RZL-12 in the presence of Collagenase, Collagenase 3 μM, 6 h incubation
  IC50: ~30.5 µM
6 h, read-out: IC50 of RZL-12 in the presence of Collagenase, Collagenase 10 μM, 6 h incubation
  IC50: 36.5 µM
6 h, read-out: IC50 of RZL-12 in the presence of Collagenase, Collagenase 30 μM, 6 h incubation
  IC50: 38.8 µM
24 h, read-out: IC50 of RZL-12 in the presence of Collagenase, Collagenase 0, 24 h incubation
  IC50: 22.8 µM
24 h, read-out: IC50 of RZL-12 in the presence of Collagenase, Collagenase 0.1 μM, 24 h incubation
  IC50: 38 µM
24 h, read-out: IC50 of RZL-12 in the presence of Collagenase, Collagenase 0.3 μM, 24 h incubation
  IC50: 38.5 µM
24 h, read-out: IC50 of RZL-12 in the presence of Collagenase, Collagenase 1 μM, 24 h incubation
  IC50: ~36.1 µM
24 h, read-out: IC50 of RZL-12 in the presence of Collagenase, Collagenase 3 μM, 24 h incubation
  IC50: 22.9 µM
24 h, read-out: IC50 of RZL-12 in the presence of Collagenase, Collagenase 10 μM, 24 h incubation
  IC50: 28.8 µM
24 h, read-out: IC50 of RZL-12 in the presence of Collagenase, Collagenase 30 μM, 24 h incubation
  IC50: 28.8 µM
read-out: IC50 when combined, RZL-012 and collagenase combined
  IC50: 0.02 µM
RZL12 0.01 μM, Collagenase 0, 2 h of incubation
  Average RZL-012 and collagenase induced cell death (% vs untreated cells): 10.0%
RZL12 0.01 μM, Collagenase 0.1 μM, 2 h of incubation
  Average RZL-012 and collagenase induced cell death (% vs untreated cells): 6.5%
RZL12 0.01 μM, Collagenase 0.3 μM, 2 h of incubation
  Average RZL-012 and collagenase induced cell death (% vs untreated cells): 0.8%
RZL12 0.01 μM, Collagenase 1 μM, 2 h of incubation
  Average RZL-012 and collagenase induced cell death (% vs untreated cells): 5.3%
RZL12 0.01 μM, Collagenase 3 μM, 2 h of incubation
  Average RZL-012 and collagenase induced cell death (% vs untreated cells): 20.5%
RZL12 0.01 μM, Collagenase 10 μM, 2 h of incubation
  Average RZL-012 and collagenase induced cell death (% vs untreated cells): 30.3%
RZL12 0.01 μM, Collagenase 30 μM, 2 h of incubation
  Average RZL-012 and collagenase induced cell death (% vs untreated cells): 46.4%
RZL12 1 μM, Collagenase 0, 2 h of incubation
  Average RZL-012 and collagenase induced cell death (% vs untreated cells): 7.0%
RZL12 1 μM, Collagenase 0, 24 h of incubation
  Average RZL-012 and collagenase induced cell death (% vs untreated cells): 4.88%
RZL12 1 μM, Collagenase 0.1 μM, 2 h of incubation
  Average RZL-012 and collagenase induced cell death (% vs untreated cells): 6.5%
RZL12 1 μM, Collagenase 0.1 μM, 24 h of incubation
  Average RZL-012 and collagenase induced cell death (% vs untreated cells): 8.18%
RZL12 1 μM, Collagenase 0.3 μM, 2 h of incubation
  Average RZL-012 and collagenase induced cell death (% vs untreated cells): 3.0%
RZL12 1 μM, Collagenase 0.3 μM, 24 h of incubation
  Average RZL-012 and collagenase induced cell death (% vs untreated cells): −0.25%
RZL12 1 μM, Collagenase 1 μM, 2 h of incubation
  Average RZL-012 and collagenase induced cell death (% vs untreated cells): 2.0%
RZL12 1 μM, Collagenase 1 μM, 24 h of incubation
  Average RZL-012 and collagenase induced cell death (% vs untreated cells): 16.48%
RZL12 1 μM, Collagenase 3 μM, 2 h of incubation
  Average RZL-012 and collagenase induced cell death (% vs untreated cells): 19.2%
RZL12 1 μM, Collagenase 3 μM, 24 h of incubation
  Average RZL-012 and collagenase induced cell death (% vs untreated cells): 28.74%
RZL12 1 μM, Collagenase 10 μM, 2 h of incubation
  Average RZL-012 and collagenase induced cell death (% vs untreated cells): 29.9%
RZL12 1 μM, Collagenase 10 μM, 24 h of incubation
  Average RZL-012 and collagenase induced cell death (% vs untreated cells): 64.29%
RZL12 1 μM, Collagenase 30 μM, 2 h of incubation
  Average RZL-012 and collagenase induced cell death (% vs untreated cells): 48.0%
RZL12 1 μM, Collagenase 30 μM, 24 h of incubation
  Average RZL-012 and collagenase induced cell death (% vs untreated cells): 78.45%
RZL12 3 μM, Collagenase 0, 2 h of incubation
  Average RZL-012 and collagenase induced cell death (% vs untreated cells): 5.9%
RZL12 3 μM, Collagenase 0, 24 h of incubation
  Average RZL-012 and collagenase induced cell death (% vs untreated cells): 6.40%
RZL12 3 μM, Collagenase 0.1 μM, 2 h of incubation
  Average RZL-012 and collagenase induced cell death (% vs untreated cells): −1.6%
RZL12 3 μM, Collagenase 0.1 μM, 24 h of incubation
  Average RZL-012 and collagenase induced cell death (% vs untreated cells): 3.62%
RZL12 3 μM, Collagenase 0.3 μM, 2 h of incubation
  Average RZL-012 and collagenase induced cell death (% vs untreated cells): 1.1%
RZL12 3 μM, Collagenase 0.3 μM, 24 h of incubation
  Average RZL-012 and collagenase induced cell death (% vs untreated cells): 2.09%
RZL12 3 μM, Collagenase 1 μM, 2 h of incubation
  Average RZL-012 and collagenase induced cell death (% vs untreated cells): 6.1%
RZL12 3 μM, Collagenase 1 μM, 24 h of incubation
  Average RZL-012 and collagenase induced cell death (% vs untreated cells): 16.21%
RZL12 3 μM, Collagenase 3 μM, 2 h of incubation
  Average RZL-012 and collagenase induced cell death (% vs untreated cells): 18.0%
RZL12 3 μM, Collagenase 3 μM, 24 h of incubation
  Average RZL-012 and collagenase induced cell death (% vs untreated cells): 27.36%
RZL12 3 μM, Collagenase 10 μM, 2 h of incubation
  Average RZL-012 and collagenase induced cell death (% vs untreated cells): 26.4%
RZL12 3 μM, Collagenase 10 μM, 24 h of incubation
  Average RZL-012 and collagenase induced cell death (% vs untreated cells): 63.40%
RZL12 3 μM, Collagenase 30 μM, 2 h of incubation
  Average RZL-012 and collagenase induced cell death (% vs untreated cells): 47.6%
RZL12 3 μM, Collagenase 30 μM, 24 h of incubation
  Average RZL-012 and collagenase induced cell death (% vs untreated cells): 77.35%
